Measurements taken from patent US20110318270A1, “DRUG IDENTIFICATION PROTOCOL FOR TYPE 2 DIABETES BASED ON GENE EXPRESSION SIGNATURES” (VERVA PHARMACEUTICALS LTD, priority 2009, published 2011).

Key:
[1] = test system: TNFα-treated 3T3-L1 adipocytes; assay: TNFα-based GES small molecule library screen (MassARRAY, Zrcc score); type: cell-based; parameters: key: Zrcc: Z-score normalized for sample variation and gene contribution; details: 10 μM compound in final 24 h of 72 h TNFα (n=2); TTA n=29, TNF n=57
Description: In order to identify new insulin sensitizing agents, a small molecule library consisting of 1120 high-purity, off-patent chemical compounds was screened using the GES. First, 3T3 […] adipocytes were cultured in fourteen 96-well plates and incubated with 3 ng/ml TNFα for 72 h prior to the addition of 10 μM of each compound in the last 24 h of TNFα treatment. Four vehicle control, four TNFα and two TNFα plus ASA- and TGZ-treated wells serving as controls were included per 96-well plate. The aim of the screen was to identify compounds that caused the expression of the 7 gene GES to most closely resemble the expression levels observed in the insulin re-sensitized cells as this is likely to indicate that these cells have restored insulin sensitivity. Following RNA extraction and cDNA synthesis, gene expression analysis of the 7 gene GES was performed using the MassARRAY (Sequenom, San Diego, Calif.) [Cullinan and Cantor Pharmacogenomics 9:1211-1215, 2008]. Data are represented as a Z-score residual coefficient correlation (Zrcc); a Z-score that is normalised for sample to sample variation and for the relative contribution that each gene makes to the predictive power of the GES. Compounds were ranked based on their Zrcc score highest to lowest, and as an initial proof of concept validation test, the top ranked 30 compounds and 23 randomly chosen, mid-ranked compounds were subjected to 2-DOG uptake assays to determine their potential insulin sensitising effects. 3T3 […] adipocytes were incubated with 25 μM of each compound prior to performing 2-DOG uptake assays in the presence or absence of submaximal amounts of insulin (0.5 nM for 15 min).
The GES-ranked compounds were next broadly grouped into classes based on known mechanism of action or common structural features and re-represented as the mean Zrcc. Only compound classes with 10 or more members were considered further. As a result, the class of treatments that scored the highest, thus representing the most insulin sensitive cells, were the vehicle-treated cells with an average Zrcc score of 1.76±0.37; (p<0.0001 to TNFα treatment and p<0.002 to TNFαplus ASA and TGZ co-treatments).
In a CD63-only screen, TTA results with a negative score and TNF with a positive (p=0.02). Serving as internal controls in the screen, 3T3-L1 adipocytes were either treated with vehicle (0.2% w/v DMSO) for 72 h (n=55), 3 ng/ml TNFα for 72 h (TNF (n=57) or 3 ng/ml TNFα for 72 h plus 10 μM TGZ and 5 mM ASA in the final 24 h of the TNFα incubation (TTA) (n=29). The gene expression analysis of the GES was performed using the Mass ARRAY system (Cullinan and Cantor, 2008 supra). Data are calculated as a Z-score of the residual component following adjustment for total expression levels and incorporating the correlation coefficients derived from the Bayesian prediction model (Zrcc). The resulting metric is a Z-score that was normalized for sample to sample variation and for the relative contribution that each gene makes to the predictive power of the GES. Data are represented as mea Zrcc values±SEM (with p values compared with TNF-treated sample). The statistical analyses were performed using Student's t-Test assuming 2-tailed distribution and 2-sample equal variance.
In this assay, 3T3-L1 adipocytes were incubated with TNFα for 72 h followed by the addition of 10 μM of each compound in the final 24 h of the TNFα treatment (n=2). Compounds include VVP808, published insulin sensitizers furazolidone (FUR) (monoamine oxidase inhibitor), mesalamine (MES) and fosfosal (FOS) (NSAIDs), and estradiol-17-beta (EST), and known insulin resistance-inducing compounds such as ajmaline (AJM) (glucose uptake inhibitor) and corticosterone (COR) (glucocorticoid). Serving as internal controls in the screen, 3T3-L1 adipocytes were either treated with vehicle (0.2% DMSO) for 72 h (n=55), 3 ng/ml TNFα for 72 h) TNF) (n=57) or 3 ng/ml TNFα for 72 h plus 10 μM TGZ and […] ASA in the final 24 h of the TNFα incubation (TTA) (n=29). […]

[2] = test system: Diet-induced obese (DIO) mice; assay: Insulin sensitising effects of CAIs in diet-induced obese mice; type: in vivo; details: for effect on glucose tolerance: 20-100 mg/kg/day for 14 days
[3] = test system: db/db mice; details: for change in blood glucose levels compared with vehicle-treated animals: 300 mg/kg metformin or 20 mg/kg MTZ for 8 d
Description: Mice treated with MTZ (50 mg/kg/d) for 14 d were placed into metabolic cages for 24 h.

[4] = test system: Diet-induced obese (DIO) mice; assay: Insulin sensitising effects of CAIs in diet-induced obese mice; type: in vivo; details: for reduction in the incremental area under the glucose curve (AUC) compared with vehicle-treated animals / glucose disposal: 50 mg/kg/day for 14 days, intraperitoneal glucose tolerance test
Description: Diet-induced obese (DIO) mice were treated with each CAI at 50 mg/kg/day for 14 days.

[5] = test system: 3T3-L1 adipocytes; assay: Reversal of TNFα-induced insulin resistance, 2-deoxyglucose (2-DOG) uptake; type: cell-based
Description: Initially, a model of TNFα-induced insulin resistance in 3T3-L1 adipocytes was established as described previously (Sartipy and Loskutoff J Biol Chem 278:52298-52306, 2003). Following exposure of 3T3-L1 adipocytes to 3 ng/ml TNFα for 72 h, insulin resistance was determined by the ability of the cells to take up 2-deoxyglucose (2-DOG) in response to insulin. TNFα caused a 37% decrease in 2-DOG uptake compared with insulin-stimulated vehicle-treated cells (p<0.0001) (Table 1).
3T3-L1 adipocytes were either treated with vehicle—(Veh), 3 ng/ml TNFα-(TNF) or 3 ng/ml TNFα plus 10 μM TGZ and 5 mM ASA (TTA) as detailed above. Cells were then treated with insulin (0 or 10 nM) for 30 min followed by measurement of 2-deoxyglucose (2-DOG) uptake over the final 10 min of insulin stimulation. Data are presented as % change in 2-DOG uptake compared with vehicle-treated, insulin-stimulated cells and represent mean values±SEM of >3 independent experiments and each data point was assayed in triplicate. […] The amount of 2-DOG transported in vehicle-treated adipocytes was 20.5±3.4 pmol/min/well. Statistical analyses were performed using Student's t-Test assuming 2-tailed distribution and 2-sample equal variance.

`C[C@]12C[C@H](O)[C@H]3[C@@H](CCC4=CC(=O)CC[C@@]43C)[C@@H]1CC[C@@H]2C(=O)CO` [COR, corticosterone] was tested. Which “Mean Zrcc_GES ± SEM, CLU single gene” value [1] did it give?
Its value is 0.5.

What about the “Mean Zrcc_GES ± SEM, CS single gene” value [1] of the same molecule?
The value was −0.5.

What about the “Mean Zrcc_GES ± SEM, STEAP4 single gene” value [1] of the same molecule?
Its value is −0.2.

Which “Mean Zrcc_GES ± SEM, CLU single gene” value [1] does the source give for `O=C1OCCN1/N=C/c1ccc([N+](=O)[O-])o1` [FUR, furazolidone] here?
The value was 0.4.

And the “Mean Zrcc_GES ± SEM, CS single gene” value [1]?
Its value is −0.2.

What about the “Mean Zrcc_GES ± SEM, STEAP4 single gene” value [1] of the same molecule?
Its value is 0.7.

For `NS(=O)(=O)c1cc(C(=O)O)c(NCc2ccco2)cc1Cl` [furosemide], which “effect on glucose tolerance” value [2] is on record?
The value was “no significant effect”.

Which “change in blood glucose levels compared with vehicle-treated animals” value ([3]; db/db mice) does the source give for `CN(C)C(=N)N=C(N)N` [metformin] here?
Its value is “significantly lower change”.

`CC(=O)/N=c1/sc(S(N)(=O)=O)nn1C` [MTZ, methazolamide] was tested. Which “body weight, food and water intake or epididymal fat mass compared with vehicle-treated mice” value [4] did it give?
The value was “without significant changes”.

What about the “reduction in the incremental area under the glucose curve (AUC) compared with vehicle-treated animals / glucose disposal” value [4] of the same molecule?
The value was 27%.

What about the “24 h urine output and creatine excretion” value ([4]; vs vehicle-treated) of the same molecule?
Its value is “not significantly altered”.

And the “time of administration after which the fasting glucose effect peaked” value ([3]; db/db mice)?
Its value is 7 days.

What about the “time of administration after which the fasting glucose effect was seen” value ([3]; db/db mice) of the same molecule?
The value was 3 days.

And the “lower HbA1c levels” value ([3]; db/db mice, 50 mg/kg for 28 days, vs vehicle)?
Its value is “up to 23%”.

And the “reduction of glucose urine concentration compared with vehicle-treated mice” value ([3]; db/db mice, 50 mg/kg/d for 14 d, metabolic cages 24 h)?
Its value is 18%.

And the “change in blood glucose levels compared with vehicle-treated animals” value ([3]; db/db mice)?
Its value is “significantly lower change”.

And the fasting glucose levels ([3]; db/db mice, 20 or 50 mg/kg/d for 14 days)?
Its fasting glucose levels is “dose-dependent decrease”.

And the “body weight, food or water intake” value ([3]; mouse, in vivo, 20 mg/kg)?
Its value is “No change”.

What about the “decrease in food intake” value ([3]; mouse, in vivo, 50 mg/kg) of the same molecule?
The value was 27%.

And the food intake ([3]; mouse, in vivo, 50 mg/kg)?
The food intake was 4.8 ± 0.5 g/day.

And the “change in fasting blood glucose after the treatment period” value ([3]; pair-fed db/db mice, 8 days, n=6/group)?
The value was -6.2 ± 1.5 mM.

And the plasma insulin levels ([2]; 14 days, dose range)?
The plasma insulin levels was “dose-dependent decrease”.

And the “circulating glucose levels compared with vehicle-treated mice” value ([2]; concentrations above 20 mg/kg, 14 days)?
Its value is “significant reduction”.

`NS(=O)(=O)c1cc(Cl)c(Cl)c(S(N)(=O)=O)c1` [DCP, dichlorphenamide] was tested. Which “reduction in the incremental area under the glucose curve (AUC) compared with vehicle-treated animals / glucose disposal” value [4] did it give?
The value was “did not affect glucose disposal”.

And the “effect on glucose tolerance” value [2]?
The value was “no significant effect”.

For `Nc1ccc(O)c(C(=O)O)c1` [MES, mesalamine], which “Mean Zrcc_GES ± SEM, CLU single gene” value [1] is on record?
The value was −0.9.

And the “Mean Zrcc_GES ± SEM, CS single gene” value [1]?
Its value is 3.1.

And the “Mean Zrcc_GES ± SEM, STEAP4 single gene” value [1]?
The value was −0.4.

For `CC(=O)/N=c1/sc(S(N)(=O)=O)nn1C` [compound 808], which “Mean Zrcc_GES ± SEM, CLU single gene” value [1] is on record?
Its value is −0.4.

And the “Mean Zrcc_GES ± SEM, CS single gene” value [1]?
The value was 0.2.

What about the “Mean Zrcc_GES ± SEM, STEAP4 single gene” value [1] of the same molecule?
Its value is 0.5.

estradiol-17-beta was tested. Which “Mean Zrcc_GES ± SEM, CLU single gene” value [1] did it give?
The value was 0.5.

What about the “Mean Zrcc_GES ± SEM, CS single gene” value [1] of the same molecule?
The value was 0.04.

And the “Mean Zrcc_GES ± SEM, STEAP4 single gene” value [1]?
Its value is 0.3.

For `CC[C@H]1[C@@H]2C[C@H]3[C@@H]4N(C)c5ccccc5[C@]45C[C@@H]([C@H]2[C@H]5O)N3[C@@H]1O` [AJM, ajmaline], which “Mean Zrcc_GES ± SEM, CLU single gene” value [1] is on record?
The value was −0.2.

And the “Mean Zrcc_GES ± SEM, CS single gene” value [1]?
The value was −0.5.

And the “Mean Zrcc_GES ± SEM, STEAP4 single gene” value [1]?
Its value is 0.6.

With `NS(=O)(=O)c1cc(C2(O)NC(=O)c3ccccc32)ccc1Cl` (centres unmarked) [CTD, chlorthalidone] as the molecule, how does the “reduction in the incremental area under the glucose curve (AUC) compared with vehicle-treated animals / glucose disposal” value [4] read?
The value was “did not affect glucose disposal”.

What about the “effect on glucose tolerance” value [2] of the same molecule?
Its value is “no significant effect”.

Which “reduction in the incremental area under the glucose curve (AUC) compared with vehicle-treated animals / glucose disposal” value [4] does the source give for `CNS(=O)(=O)c1nn(C)c(=NC(C)=O)s1` [MMTZ, N-methyl-methazolamide] here?
The value was “not observed”.

What does the source list for `Nc1ccccc1S(N)(=O)=O` [2ABS, 2-aminobenzene sulphonamide]?
reduction in the incremental area under the glucose curve (AUC) compared with vehicle-treated animals / glucose disposal [4]: did not affect glucose disposal; effect on glucose tolerance [2]: no significant effect

Which results are given for `O=C(O)c1ccccc1OP(=O)(O)O` [FOS, fosfosal]?
Mean Zrcc_GES ± SEM, CLU single gene [1]: 0.6; Mean Zrcc_GES ± SEM, CS single gene [1]: −0.05; Mean Zrcc_GES ± SEM, STEAP4 single gene [1]: 0.3

For “Acute Insulin: insulin, 10 nM for 30 min”, which “2-DOG Uptake (% of insulin-stimulated alone)” value ([5]; insulin 10 nM 30 min, TNFα 3 ng/ml 72 h, 10 μM TGZ & 5 mM ASA final 24 h, mean ± SEM) is on record?
Its value is 100.0 ± 9.7%.

What about the “fold increase in 2-DOG uptake above basal level” value ([5]; vehicle-treated, insulin-stimulated adipocytes (10 nM, 30 min)) of the same molecule?
The value was 6.6±0.6 fold.
